Source: ChEMBL document CHEMBL1153530, “Pursuing aldose reductase inhibitors through in situ cross-docking and similarity-based virtual screening” (J Med Chem, 2009)

Target: Aldo-keto reductase family 1 member B1 (Rattus norvegicus, UniProt P07943)
Experiment: Inhibition of ALR2 from Sprague-Dawley albino rat lens extract by spectrophotometrically

SMILES	IC50 [µM]
O=C(O)C(Cc1ccc([N+](=O)[O-])cc1)NS(=O)(=O)c1ccccc1 (stereo unspecified)	107
O=C(O)C[C@@H](CC(=O)Nc1ccc2ccccc2n1)c1ccccc1	85.3
N#CC(C#N)=CNc1ccc(S(=O)(=O)c2ccc(NC=C(C#N)C#N)cc2)cc1	52.7
O=[N+]([O-])c1c(Sc2ccccc2)sc(Sc2ccccc2)c1[N+](=O)[O-]	48.1
CN(C)C(=O)Oc1ccc2nnc3ccnn3c2c1	38.7
COc1cccc2c1c(NC(=O)CSCC(=O)O)nn2C	77.6

Second part, the compound after the results:

IC50 [µM]	SMILES
31.1	Cc1ccc(S(=O)(=O)Oc2c(Cc3ccccc3)c(=O)n(C)c3ccccc23)cc1
41.4	O=C(O)[C@H]1Cc2ccccc2N1C(=O)OCc1ccccc1
1.19	O=C(O)CCCc1nc(-c2cnc3n(c2=O)CCS3)no1
35.6	O=S(=O)(Oc1ccc2nonc2c1)c1ccc(Cl)s1
3.92	O=C(O)[C@@H]1CSCN1C(=O)OCC1c2ccccc2-c2ccccc21
